Assay results as given in patent US6962930B1, “Compounds, compositions and method suitable for amelioration of withdrawal syndromes and withdrawal-induced brain damage” (Lohocla Research Corporation, priority 1997, dated 2005).
Where two headings read alike, the source gives them in different places.

Tests used:
[1] = target: T1, strychnine-insensitive glycine binding site on the NMDA receptor (Rattus norvegicus, UniProt P35439); experiment: [3H]5,7-DCKA binding to rat cortical membranes; conditions: 20 nM [3H]5,7-DCKA
T1 construct: from tissue; host or cells: rat cerebral cortex, crude synaptic (buffy coat) membranes
Method: Male Sprague-Dawley rats were killed, their brains removed, and their cerebral cortices dissected and binding of [^3H]5,7-dichlorokynurenate ([^3H]5,7-DCKA) assayed. [^3H]5,7-DCKA binding assays were performed in crude synaptic membranes prepared by a modification of the method of Jones, et al., J. Pharmacol. Methods, 21 161–168 (1989) the relevant disclosures of which are incorporated herein by reference. The pelleted “buffy coat”fraction was obtained by centrifugation and frozen at about −80° C. for at least 18 hours. On the day that the binding assays were performed, the pelleted membranes were resuspended in 50 mM HEPES-KOH buffer (pH 7.8) containing 0.08% TRITON® X-100. After stirring for about 30 min at about 4° C., the membranes were pelleted by recentrifugation and then washed twice by resuspension in buffer and centrifugation.
Binding assays were performed in 0.5 ml volume using 150–200 μg of tissue, 20 nM [^3H]5,7-DCKA and 3–300 μM DCUKA or MeO-DCUKA or 1–100 μM DCUK-OMe (all concentrations are final concentrations in 0.6% dimethyl sulfoxide (DMSO)). Incubations were performed for about 45 min at about 4° C. followed by termination by centrifugation. Bound radioactivity was quantitated by liquid scintillation spectroscopy. Non-specific binding was defined with 1 mM glycine.

[2] = target: T2, NR1a/NR2A recombinant receptors (Homo sapiens, UniProt Q05586); experiment: NMDA-induced currents in oocytes expressing NR1a/NR2A; format: cell-based; conditions: 100 μM NMDA, 50 μM DCUKA, increasing glycine up to 100 μM
T2 construct: expressed in transfected cells; host or cells: Xenopus laevis oocytes, nuclear cDNA injection
Method: (§1) Oocytes were obtained from Xenopus laevis frogs (Nasco or Xenopus I) kept in aquarium tanks at 19–21° C., on a 12 hr light/dark cycle. Mature females were anesthetized by immersion for approximately 30 min in a 0.12% 3-aminobenzoic acid ethyl ester solution, a small incision was made in the abdominal wall and a piece of ovary was removed and placed in Modified Barth's solution (MBS; in mM) containing 88 NaCl, 1 KCl, 10 HEPES, 0.82 MgSO4, 2.4 NaHCO3, 0.91 CaCl2, 0.33 Ca(NO3)2 (pH 7.5). To facilitate manual dissection of oocytes, a section of ovary was transferred from MBS to a hypertonic buffer containing 108 mM NaCl, 2 mM KCl, 2 mM EDTA, 10 mM HEPES, pH 7.5 and theca and epithelial layers of mature oocytes (stages V and VI) were removed with surgical forceps. The follicular layer was removed by a 10 min immersion in 0.5 mg/ml of collagenase in buffer containing 83 mM NaCl, 2 mM KCl, 1 mM MgCl2 and 5 mM HEPES.
(§2) Human NR1a, NR2A and NR2B cDNAs in pCDNA-1Amp were transformed and amplified in XL-1 Blue cells and purified with the MaxPrep Qiagen kit. Oocytes were injected with cDNA into the nucleus in the following concentrations: NR1a/2A cDNAs 0.75 ng/30 nl 1:1 ratio, NR1a/2B cDNAs 3.0 ng/30 nl: 1:1 ratio. Injections were made with micropipettes (10 μm tip diameter) connected to a Drummond micropipettor attached to a micromanipulator. After injection, oocytes were individually placed in wells of 96-well microtiter plates containing incubation medium (MBS supplemented with 10 mg/l streptomycin, 10,000 U/l penicillin G, 50 mg/l gentamicin, 2 mM sodium pyruvate, 0.5 mM theophylline) that had been sterilized by passage through a […]. Oocytes were incubated at 19° C. for 2 to 4 days after injection.
(§3) Oocytes were placed in a rectangular chamber (approximately […]) and perfused (2 ml/min) with frog Ringer (in mM) containing 115 NaCl, 2.5 KCl, 1.8 CaCl2, 10 HEPES (pH 7.2). […] Control responses were always measured before and after addition of the DCUKA. […] Data are expressed as the % inhibition of the agonist response obtained in the absence of the drug.

[3] = target: voltage-sensitive sodium channels; experiment: [3H]BTX binding to rat cortical synaptosomes
[4] = target: T3, NR1a/NR2B recombinant receptors (Homo sapiens, UniProt Q05586); experiment: NMDA-induced currents in oocytes expressing NR1a/NR2B; format: cell-based; conditions: 100 μM NMDA, 50 μM DCUKA, increasing glycine
T3 construct: expressed in transfected cells; host or cells: Xenopus laevis oocytes, nuclear cDNA injection
Method: as §1, §2, §3

[5] = system: heat shock protein (HSP72) in the hippocampus of C57BL/6 mice; experiment: KA-induced increase in HSP72, Western blot; format: in vivo; conditions: 100 mg/kg i.p. 30 min before KA 30 mg/kg i.p., hippocampus at 24 hours
Method: See, for example, Gonzales, M. F. et al., “HEAT SHOCK PROTEINS AS MARKERS OF NEURAL INJURY,” Mol. Brain Res., 6 93–100 (1989), the relevant portions of which are incorporated herein by reference.
Groups of male C57BL/6 mice separately received either (1) no injections (Naive), (2) KA injections (30 mg/kg, i.p.), (3) 100 mg/kg MeO-DCUKA administered intraperitoneally, or (4) a pretreatment of 100 mg/kg MeO-DCUKA administered (vehicle as in Example 9) intraperitoneally about 30 minutes before receiving an injection of KA (30 mg/kg, i.p.). All of the mice were killed 24 hours later, their brains removed and the hippocampus dissected. HSP72 protein levels were determined in sodium dodecylsulfate (SDS)-solubilized hippocampal lysates by SDS-PAGE electrophoretic separation and subsequent Western blot analysis using antibodies specific for HSP72/73 proteins. Immunoreactive bands were visualized on film using enhanced chemiluminescence and quantitated by image analysis.

[6] = system: ethanol withdrawal-induced seizures in C57BL/6 mice; experiment: Ethanol withdrawal-induced seizures; format: in vivo; conditions: i.p. at 0700, 1100 and 1400 hours; (±)HA-966 3, 10 or 17 mg/kg; 7-Cl kynurenic acid 10, 17 or 30 mg/kg; carbamazepine 17, 30 or 50 mg/kg
Excerpt: Male C57BL/6 mice were housed individually. One group of mice were each given a measured amount of liquid diet (BioServ) containing 6.7% ethanol (v/v) and a second, control group of mice each received the same diet with maltodextrin substituted isocalorically for ethanol, as their sole nutrient source for 7 days. A description of such a test can be found in Grant, K. A., et al., “ETHANOL WITHDRAWAL SEIZURES AND THE NMDA RECEPTOR COMPLEX,” Eur. J. Pharmacol., 176 289–296, (1990), the relevant disclosures of which are incorporated herein by reference. Pair-fed mice were given a volume of liquid diet equal to the average volume that the ethanol-fed mice consumed on the previous day. This treatment regimen produces mice that are functionally tolerant to and physically dependent on ethanol. Beginning at 0700 hours on the eighth day of the diet, ethanol-containing diet was replaced with control liquid diet (“withdrawal”).
Withdrawal seizure severity was assessed by measuring the incidence of handling-induced and spontaneous seizures, which were rated on a rating scale of 0 to 4, modified from a rating scale described by Grant, K. A., et al. in the above cited article. The rating scale was as follows: 0, little or no reaction; 1, slight jerkiness upon handling; 2, excitability increasing in magnitude to a clonic-tonic seizure; 3, spontaneous or instantaneous clonic-tonic seizure; 4, death while in a seizure. The mice were rated for seizure severity at 2, 4, 6, 7, 8, 9, 10, 11, 12 and 24 hours after ethanol withdrawal. Groups of ethanol-fed mice were injected intraperitoneally at 0700, 1100 and 1400 hours with saline, 3, 10 or 17 mg/kg (±)HA-966 (FIG. 5A) or 10, 17 or 30 mg/kg 7-Cl kynurenic acid (FIG. 5B).
Male C57BL/6 mice were fed ethanol in a liquid diet and the withdrawal seizure severity was assessed as described in EXAMPLE 5. Groups of ethanol-fed mice received a single injection (i.p.) of either vehicle (4% Tween-80, 0.5% carboxymethylcellulose in 0.9% saline) alone or of 100 mg/kg DCUK-OMe suspended in the vehicle administered at 0900 hours. The results are presented in FIG. 6A as the median withdrawal scores of vehicle-injected (N=14) or DCUK-OMe injected (N=6) mice in which * denotes P<0.05, statistically compared to vehicle-injected mice, in the Mann-Whitney U test. FIG. 6B presents the same data as the total withdrawal score, defined as the area enclosed by the curve connecting median withdrawal scores plotted against time as in FIG. 6A. The mean total withdrawal scores±SEM for the vehicle-injected group and DCUK-OMe-injected groups are plotted in which * denotes P<0.05, statistically compared to vehicle-injected mice, by the Student t-test.

naive C57BL/6 mice = experiment: Accelerating rotarod, C57BL/6 mice; format: in vivo; conditions: 50 mg/kg i.p., 15 to 120 min after injection
Method: Naive C57BL/6 mice were trained to remain on an accelerating rotarod (diameter 3 cm, 0–30 rpm over 5 min) for six consecutive trials. A description of this test for the acute incoordinating/ataxic effects of sedative/hypnotic drugs such as ethanol can be found in Hoffman, P. L., et al., Life Sciences, 41 611–619 (1987), the relevant disclosures of which are incorporated herein by reference.
The amount of time the mice remained on the rotarod during their last trial was used as their “base-line” score. The mice were then treated with saline (n=10) or 50 mg/kg (±)HA-966 (n=5). The length of time the mice remained on the rotarod was redetermined at 15, 30, 60, 90, and 120 min after drug injection (i.p.). Results for each mouse at each time point were expressed as a ratio (percentage) of their pre-injection base-line time.

naive Swiss-Webster mice = experiment: Accelerating rotarod, Swiss-Webster mice; conditions: i.p.; DCUK-OMe 100 or 500 mg/kg, diazepam 1 mg/kg, carbamazepine 50 mg/kg
Swiss-Webster mice = experiment: Ethanol-induced loss of righting reflex; format: in vivo; conditions: i.p. 30 minutes before ethanol; DCUK-OMe 100 mg/kg, DZP 1 mg/kg
Method: Swiss-Webster mice were pretreated (i.p.) with 100 mg/kg DCUK-OMe or 1 mg/kg diazepam (DZP) (in 5% Tween-80, 20% Intralipid) 30 minutes before receiving an i.p. administration of ethanol (either 2.3 or 3.2 g/kg, 20% v/v in saline.). The duration of the ethanol-induced loss of righting reflex (defined as the inability of the mouse to right itself when placed on its back in a trough) was measured. […] Since withdrawal signs are many times evident in individuals whose blood ethanol levels are dropping but are far from zero, the DCUK compounds would have an advantage over DZP in that the CNS depressant effects of ethanol would not be accentuated by DCUK compounds if the DCUK compounds are used in an alcohol-intoxicated individual.

[7] = target: T1, strychnine-insensitive glycine binding site on the NMDA receptor; conditions: none* = no displacement at 64 μM carbamazepine; taken from McCabe et al. 1993; cited from earlier work
[8] = depolarizing conditions (135 mM KCl), read-out: IC50 (μM) [3H]BTX binding, values in parentheses
[9] = non-depolarizing conditions, none = no displacement at 100 μM, read-out: IC50 (μM) [3H]BTX binding

O=C(O)c1cc(=O)c2c(Cl)cc(Cl)cc2[nH]1 [5,7-DCKA, 5,7-dichlorokynurenate, reference compound]
IC50 [1]: 0.11 µM
reversal by glycine of inhibition of NMDA-induced currents [2]: competitively antagonizes NMDA receptors regardless of subunit composition
IC50 (μM) [3H]BTX binding ([3]; non-depolarizing conditions, none = no displacement at 100 μM): none
reversal by glycine of inhibition of NMDA-induced currents [4]: competitively antagonizes NMDA receptors regardless of subunit composition

COc1ccccc1N(C(=O)Nc1cc(C(=O)O)nc2cc(Cl)cc(Cl)c12)c1ccccc1 [MeO-DCUKA]
KA-induced increase in HSP72 protein levels [5]: prevented
IC50 [1]: 35 µM
IC50 [3, 8]: 30 µM
IC50 [3, 9]: 64 µM

O=C(O)c1cc(O)c2ccc(Cl)cc2n1 [7-Cl kynurenic acid]
ethanol withdrawal seizure severity [6]: did not significantly reduce seizure severity

NC1CCN(O)C1=O (racemic) [(±)HA-966, 3-amino-1-hydroxypyrrolidin-2-one]
rotarod performance (ataxia/incoordination) (naive C57BL/6 mice): impaired in their ability to remain on the rotarod at all time points tested
ethanol withdrawal seizure severity [6]: did not significantly reduce seizure severity

CN1C(=O)CN=C(c2ccccc2)c2cc(Cl)ccc21 [diazepam, reference compound]
rotarod performance (ataxia/incoordination) (naive Swiss-Webster mice): produced significant incoordination
duration of ethanol-induced loss of righting reflex (LORR) (Swiss-Webster mice): significant (*P<0.05) enhancement

NC(=O)N1c2ccccc2C=Cc2ccccc21 [Carbamazepine, carbamazepine, reference compound]
IC50 (μM) [3H]5,7-DCKA binding [7]: none*
IC50 [3, 8]: 56 µM
IC50 [3, 9]: 71 µM
ethanol withdrawal seizure severity [6]: no significant reduction of severity or the duration of the signs of withdrawal
